Results on one substance are retold here after patent US6723702B2, “Use of relaxin treat diseases related to vasoconstriction” (RAS Medical, Inc., priority 2000, dated 2004).

Assay [1] deals with bFGF and VEGF protein staining, peri-infarct area of the heart. In words: Rat LCAL model: immunohistochemical analysis of the peri-infarct area. The class given is in vivo. Here is the method: Immunohistochemical analysis of the peri-infarct area of the heart was performed as follows. Transverse sections from paraffin embedded hearts were obtained at 3 levels. Sections were stained with H&E to assess neovascularization. Slides of heart sections were deparaffinized in xylene and washed with ethanol. Slides were then rinsed in sterile double distilled water before proceeding with antigen retrieval, as recommended by the antibody vendor (Biogenex). Sections were incubated for 30 minutes in 1.5% normal goat blocking serum (Biogenex, San Ramon, Calif.) and washed three times for 5 minutes each with PBS. Sections were then incubated with a monoclonal antibody against VEGF (VEGF-C1), or a polyclonal antibody against bFGF (FGF-2-147) (both at 5 μg/ml), before washing with PBS. Primary, and anti-goat or anti-rabbit secondary antibodies were purchased from Santa Cruz Biotechnology (Santa Cruz, Calif.). Sections were then incubated in multilink, a biotinylated goat anti-immunoglobulin for use with mouse, rabbit, guinea pig and rat primary antibodies (Biogenex) for 30 minutes at room temperature, followed by washing twice for 10 minutes each with PBS. Sections were labeled with peroxidase conjugated streptavidin for 20 minutes before finally washing twice for 5 minutes with PBS and air-drying). […]

The test system of a further assay is female rats. In words: rhRLX for 5 days in female rats with infusion of ETB receptor antagonist RES-701-1 or its vehicle. The class given is in vivo, rat. As to the method:
After surgical recovery, an osmotic minipump (model 2ML1, Alza Co., Palo Alto Calif.) containing either recombinant human relaxin (rhRLX; n=9 rats) or vehicle (n=8) was implanted subcutaneously on the back using light ether anesthesia. The infusion rate of rhRLX was 4 μg/hour. Experiments were conducted on day 5 of rhRLX or vehicle administration. MAP and renal function were measured as described above.
The technique of urine collection was again reliable. After reaching steady-state, the excretion rates of IN and PAH at baseline were 99±3 and 100±2% of their respective infusions for the rats administered rhRLX, and 100±2 and 99±2% for those given vehicle. Following the determination of baseline MAP and renal function, an infusion of RES-701-1, a selective endothelin type B (ETB) receptor antagonist (Conrad et al. (1999) Am. J. Physiol. 272:F767-F776; and Tanaka et al. (1994) Mol. Pharmacol. 45:724-730), was started at a rate of 10 μg/minute (flow rate 12 μl/minute) through the venous catheter. […] At the end of the experiment, 1.0 ml of blood was collected for determination of serum rhRLX.
In an additional three rats each administered rhRLX or vehicle, identical experimental procedures as described above were applied, except that the vehicle for RES-701-1 was infused instead of RES-701-1.

A further assay concerns THP-1 cells. In words: THP-1 cells: VEGF and bFGF mRNA induction. It is filed as cell-based, human. Particulars: 100 ng/ml for 3 hours (FIG. 9). As to the method:
Sense and anti-sense primers for use with the real time RT-PCR, ABI Prism 7700 Sequence Detection System were designed using the PrimerExpress version 1.0 software (PE Applied Biosystems, Inc.). Rat and human specific primer/probe sets included those for GAPDH, bFGF, the VEGF 164 aa or 120 aa rat isoforms, and their respective human homologues (VEGF 165 and VEGF 121). ABI PRISM specific primer/probes were purchased from BioSource International Inc. or PE Applied Biosystems.
RT-PCR was performed on 150 ng for the analysis of VEGF and bFGF mRNA expression. Ten nanograms of total RNA was used for GAPDH niRNA expression. […] Data were analyzed using Sequence Detector v1.6.3 software (Applied Biosystems/PE). […]
Because macrophages are the inflammatory cells predominantly responsible for the angiogenic response that occurs during healing, a monocyte/macrophage cell line shown previously to bind relaxin with high affinity (THP-1) (Parsell et al. (1996) J. Biol. Chem. 271:27936-27941) was tested for relaxin inducibility of VEGF and bFGF. […] In order to determine whether the increase in VEGF mRNA observed following short-term relaxin treatment was reflected by an elevation in secreted VEGF protein, THP-1 cells were treated with relaxin (0.01-100 ng/ml) for 24 h, the conditioned media collected, and VEGF content in the media quantified by ELISA. […]

In assay [2] the test system is ovariectomized or sham ovariectomized rats. In words: Chronic infusion of rhRLX on renal function in ovariectomized or sham ovariectomized rats. It is filed as in vivo, rat. As to conditions: day 5 of infusion 4 μg/hour; comparable in ovariectomized and sham ovariectomized rats. From the text:
The details of the surgical procedures have been previously described. See, e.g., Conrad (1984) Kidney Int. 26:24-29; and Danielson and Conrad (1995) J. Clin. Invest. 96:482-490. […] The bladder catheter, a silastic-covered stainless steel cannula, was sewn into the urinary bladder with a purse-string suture and exteriorized through the ventral abdominal wall. This catheter was then plugged allowing the animal to urinate through the urethra while in her home cage. In the ovariectomized and sham ovariectomized animals, the ovaries were first ligated and then excised, or briefly manipulated, respectively, via a small incision made in the lateral abdominal wall immediately after the insertion of vascular and bladder catheters. All surgeries were conducted using aseptic technique. At least a 7-day recovery period was allowed before experimentation.
Six female rats each were subjected either to ovariectomy or sham ovariectomy immediately after the implantation of vascular and bladder catheters. Seven days later, renal function and MAP were assessed before the insertion of osmotic minipumps containing rhRLX. On day 5 of the relaxin infusion (4 μg/hour), renal function and MAP were again determined.

Setting [3] is: rhRLX day 5, V, vehicle for RES-701-1.

Regarding “rhRLX: recombinant human relaxin, identical in amino acid sequence to the product of the human H2 gene; A chain of 24, B chain of 29 amino acids”, the “peri-infarct bFGF staining” value in assay [1] (7 and 21 days, vs vehicle-treated hearts, blinded scoring) is on record as “more intense”. In addition, the “intensity of VEGF staining” value in assay [1] (relaxin vs vehicle-treated hearts) is reported as “No differences in intensity”. In the assay with female rats (rhRLX day 5, B, baseline), this substance had an ERPF of 11220, an ERVR of 6.67, a GFR of 3082 and an MAP of 112 ± 7. In the assay on female rats (setting [3]), this substance displayed an ERPF of 10464, an ERVR of 6.97, a GFR of 3112 and an MAP of 115 ± 8. In the assay with female rats (rhRLX for 5 days (FIG. 4)), the “ERPF at baseline compared to vehicle infusion” value is given as “significantly increased”, the “ERVR reduction at baseline compared to vehicle infusion” value is 20-30%, the “GFR at baseline compared to vehicle infusion” value is recorded as “significantly increased” and the “MAP at baseline compared to vehicle infusion” value was “not significantly affected”. Also, the “Transcripts for VEGF” value in the assay with THP-1 cells is reported as “specifically upregulated”. Moreover, in assay [2], the “effect on ERPF” value is recorded as “profound rise”, the “effect on ERVR” value is “fall” and the “effect on GFR” value is “profound rise”.
